Source: ChEMBL document CHEMBL3885861, “Open TG-GATES”

Species: Rattus norvegicus
Test: Open TG-GATES - Regimen: Daily Repeat
Type: toxicity, organism-based, Sprague-Dawley
Parameters: regimen Daily Repeat, gender Male, age 6 weeks
Details: in vivo, po, route gavage; for APTT / Bas / Eos / Fbg / Hb / Ht / Lym / MCH / MCHC / MCV / Mono / Neu / PT / Plat / RBC / Ret / WBC: tissue Blood; for KIDNEY_L / KIDNEY_R / KIDNEY_TOTAL: tissue Kidney; for LIVER: tissue Liver; for A/G / ALP / ALT / AST / BUN / CRE / Ca / Cl / DBIL / GLC / IP / K / LDH / Na / PL / RALB / TBIL / TC / TG / TP / gamma-GTP: tissue Plasma
[1] = 0 mg/kg, 72 h, dose level Control, time 3 day
[2] = 0 mg/kg, […], dose level Control, time 7 day
[3] = 0 mg/kg, […], dose level Control, time 14 day
[4] = 0 mg/kg, […], dose level Control, time 28 day
[5] = 1 mg/kg, 72 h, dose level Low, time 3 day
[6] = 1 mg/kg, […], dose level Low, time 7 day
[7] = 1 mg/kg, […], dose level Low, time 14 day
[8] = 1 mg/kg, […], dose level Low, time 28 day

## COc1ccc2c(c1)c(CC(=O)O)c(C)n2C(=O)c1ccc(Cl)cc1 [INDOMETHACIN]
[1]
  TERMINAL_BW: 239.9 g
  APTT: 17 s
  Bas: 0%
  Eos: 0.8%
  Fbg: 211.8 mg/dL
  Hb: 13.4 g/dL
  Ht: 40.3%
  Lym: 81.4%
  MCH: 21.4 pg
  MCHC: 33.1%
  MCV: 64.6 fL
  Mono: 8%
  Neu: 10.2%
  PT: 11.2 s
  Plat: 122 x10_4/uL
  RBC: 625.2 x10_4/ul
  Ret: 7.6%
  WBC: 117.2 x10_2/uL
  KIDNEY_L: 1 g
  KIDNEY_R: 1.1 g
  KIDNEY_TOTAL: 2.1 g
  LIVER: 11.9 g
  A/G: 2.1
  ALP: 1154.8 IU/L
  ALT: 33.2 IU/L
  AST: 60 IU/L
  BUN: 15.4 mg/dL
  CRE: 0.6 mg/dL
  Ca: 10.5 mg/dL
  Cl: 107 meq/L
  DBIL: 0.032 mg/dL
  GLC: 201.8 mg/dL
  IP: 7.4 mg/dL
  K: 4.8 meq/L
  LDH: 95.2 IU/L
  Na: 139.6 meq/L
  PL: 144.4 mg/dL
  RALB: 3.9 g/dL
  TBIL: 0.4 mg/dL
  TC: 74.2 mg/dL
  TG: 86.8 mg/dL
  TP: 5.7 g/dL
  gamma-GTP: 1 IU/L
[2]
  TERMINAL_BW: 269.3 g
  APTT: 16.5 s
  Bas: 0%
  Eos: 1%
  Fbg: 223.6 mg/dL
  Hb: 14.1 g/dL
  Ht: 42.4%
  Lym: 82%
  MCH: 20.9 pg
  MCHC: 33.3%
  MCV: 62.8 fL
  Mono: 6.8%
  Neu: 10%
  PT: 11.8 s
  Plat: 106.3 x10_4/uL
  RBC: 675 x10_4/ul
  Ret: 5.7%
  WBC: 126.2 x10_2/uL
  KIDNEY_L: 1.2 g
  KIDNEY_R: 1.2 g
  KIDNEY_TOTAL: 2.4 g
  LIVER: 13.2 g
  A/G: 2
  ALP: 925.4 IU/L
  ALT: 33 IU/L
  AST: 63.2 IU/L
  BUN: 18.4 mg/dL
  CRE: 0.5 mg/dL
  Ca: 10.7 mg/dL
  Cl: 106.8 meq/L
  DBIL: 0.012 mg/dL
  GLC: 202.2 mg/dL
  IP: 8.3 mg/dL
  K: 5 meq/L
  LDH: 97.4 IU/L
  Na: 139 meq/L
  PL: 144.8 mg/dL
  RALB: 4 g/dL
  TBIL: 0.3 mg/dL
  TC: 69.2 mg/dL
  TG: 126.8 mg/dL
  TP: 6.1 g/dL
  gamma-GTP: 0.6 IU/L
[3]
  TERMINAL_BW: 339.4 g
  APTT: 16.7 s
  Bas: 0%
  Eos: 0.6%
  Fbg: 228.8 mg/dL
  Hb: 13.9 g/dL
  Ht: 41.7%
  Lym: 84.2%
  MCH: 20.1 pg
  MCHC: 33.4%
  MCV: 60.3 fL
  Mono: 5%
  Neu: 10.4%
  PT: 11.8 s
  Plat: 110.6 x10_4/uL
  RBC: 691.2 x10_4/ul
  Ret: 5.1%
  WBC: 148.4 x10_2/uL
  KIDNEY_L: 1.3 g
  KIDNEY_R: 1.3 g
  KIDNEY_TOTAL: 2.6 g
  LIVER: 16 g
  A/G: 1.8
  ALP: 780.8 IU/L
  ALT: 30.6 IU/L
  AST: 60.6 IU/L
  BUN: 19.8 mg/dL
  CRE: 0.6 mg/dL
  Ca: 10.4 mg/dL
  Cl: 105.6 meq/L
  DBIL: 0.012 mg/dL
  GLC: 201.2 mg/dL
  IP: 8.5 mg/dL
  K: 4.8 meq/L
  LDH: 82.6 IU/L
  Na: 138.2 meq/L
  PL: 147.6 mg/dL
  RALB: 3.9 g/dL
  TBIL: 0.3 mg/dL
  TC: 72.4 mg/dL
  TG: 130.4 mg/dL
  TP: 6.2 g/dL
  gamma-GTP: 1.6 IU/L
[4]
  TERMINAL_BW: 433.9 g
  APTT: 15.3 s
  Bas: 0%
  Eos: 0.8%
  Fbg: 256.8 mg/dL
  Hb: 14.6 g/dL
  Ht: 44.4%
  Lym: 86.8%
  MCH: 18.5 pg
  MCHC: 32.9%
  MCV: 56.1 fL
  Mono: 4.4%
  Neu: 7.8%
  PT: 11.8 s
  Plat: 112.3 x10_4/uL
  RBC: 792.2 x10_4/ul
  Ret: 3.2%
  WBC: 153.4 x10_2/uL
  KIDNEY_L: 1.5 g
  KIDNEY_R: 1.5 g
  KIDNEY_TOTAL: 3 g
  LIVER: 19.6 g
  A/G: 1.9
  ALP: 622.6 IU/L
  ALT: 27.6 IU/L
  AST: 56.2 IU/L
  BUN: 18.8 mg/dL
  CRE: 0.7 mg/dL
  Ca: 10.7 mg/dL
  Cl: 105.2 meq/L
  DBIL: 0.018 mg/dL
  GLC: 206.4 mg/dL
  IP: 7.5 mg/dL
  K: 4.1 meq/L
  LDH: 62.4 IU/L
  Na: 139.2 meq/L
  PL: 163.2 mg/dL
  RALB: 4.3 g/dL
  TBIL: 0.3 mg/dL
  TC: 79.6 mg/dL
  TG: 181.2 mg/dL
  TP: 6.6 g/dL
  gamma-GTP: 1.8 IU/L
[5]
  TERMINAL_BW: 239.1 g
  APTT: 16.8 s
  Bas: 0%
  Eos: 0.4%
  Fbg: 230.8 mg/dL
  Hb: 13.6 g/dL
  Ht: 40.7%
  Lym: 79%
  MCH: 21.7 pg
  MCHC: 33.5%
  MCV: 65 fL
  Mono: 7.6%
  Neu: 12.8%
  PT: 10.9 s
  Plat: 102.8 x10_4/uL
  RBC: 626.4 x10_4/ul
  Ret: 7%
  WBC: 89 x10_2/uL
  KIDNEY_L: 1.1 g
  KIDNEY_R: 1.1 g
  KIDNEY_TOTAL: 2.2 g
  LIVER: 11.8 g
  A/G: 1.9
  ALP: 1210.2 IU/L
  ALT: 35.2 IU/L
  AST: 64.4 IU/L
  BUN: 16.8 mg/dL
  CRE: 0.6 mg/dL
  Ca: 10.6 mg/dL
  Cl: 105.8 meq/L
  DBIL: 0.032 mg/dL
  GLC: 196.6 mg/dL
  IP: 7.9 mg/dL
  K: 4.9 meq/L
  LDH: 91.4 IU/L
  Na: 138.8 meq/L
  PL: 165.2 mg/dL
  RALB: 3.9 g/dL
  TBIL: 0.3 mg/dL
  TC: 86 mg/dL
  TG: 108 mg/dL
  TP: 5.9 g/dL
  gamma-GTP: 1.2 IU/L
[6]
  TERMINAL_BW: 272.4 g
  APTT: 16.3 s
  Bas: 0%
  Eos: 0.6%
  Fbg: 240.2 mg/dL
  Hb: 13.8 g/dL
  Ht: 41.9%
  Lym: 82.8%
  MCH: 21.1 pg
  MCHC: 33.1%
  MCV: 63.9 fL
  Mono: 7.2%
  Neu: 9.2%
  PT: 11.7 s
  Plat: 121.9 x10_4/uL
  RBC: 656.8 x10_4/ul
  Ret: 7.2%
  WBC: 124.3 x10_2/uL
  KIDNEY_L: 1.1 g
  KIDNEY_R: 1.1 g
  KIDNEY_TOTAL: 2.3 g
  LIVER: 13.5 g
  A/G: 2.1
  ALP: 892.6 IU/L
  ALT: 30.2 IU/L
  AST: 61.4 IU/L
  BUN: 20 mg/dL
  CRE: 0.5 mg/dL
  Ca: 11 mg/dL
  Cl: 105.6 meq/L
  DBIL: 0.006 mg/dL
  GLC: 193.2 mg/dL
  IP: 8.2 mg/dL
  K: 4.9 meq/L
  LDH: 89.2 IU/L
  Na: 139.4 meq/L
  PL: 156.6 mg/dL
  RALB: 4 g/dL
  TBIL: 0.4 mg/dL
  TC: 77.4 mg/dL
  TG: 149.6 mg/dL
  TP: 6 g/dL
  gamma-GTP: 1.4 IU/L
[7]
  TERMINAL_BW: 337.2 g
  APTT: 16.5 s
  Bas: 0%
  Eos: 0.8%
  Fbg: 232.4 mg/dL
  Hb: 14.4 g/dL
  Ht: 43.4%
  Lym: 85.4%
  MCH: 19.8 pg
  MCHC: 33.1%
  MCV: 59.8 fL
  Mono: 4.8%
  Neu: 9%
  PT: 11.6 s
  Plat: 119.2 x10_4/uL
  RBC: 726.6 x10_4/ul
  Ret: 4.3%
  WBC: 140.8 x10_2/uL
  KIDNEY_L: 1.3 g
  KIDNEY_R: 1.3 g
  KIDNEY_TOTAL: 2.6 g
  LIVER: 16.3 g
[8]
  TERMINAL_BW: 425.7 g
  APTT: 16.4 s
  Bas: 0%
  Eos: 0.8%
  Fbg: 249.8 mg/dL
  Hb: 15.2 g/dL
  Ht: 45.7%
  Lym: 83.6%
  MCH: 19.1 pg
  MCHC: 33.2%
  MCV: 57.5 fL
  Mono: 5.6%
  Neu: 10.6%
  PT: 11.8 s
  Plat: 113.7 x10_4/uL
  RBC: 795.8 x10_4/ul
  Ret: 2.7%
  WBC: 149.8 x10_2/uL
  KIDNEY_L: 1.4 g
  KIDNEY_R: 1.4 g
  KIDNEY_TOTAL: 2.8 g
  LIVER: 18.6 g
